≈ marks a conversion by molar mass, not a printed value. Calls of active or inactive are those of the source. The rule behind the calls is not given here.
Key:
[1] = test system: Mycobacterium tuberculosis; assay: Antimicrobial activity against Mycobacterium tuberculosis Beijing after 2 to 3 weeks; type: functional, organism-based
[2] = test system: Mycobacterium tuberculosis; assay: Antimicrobial activity against Mycobacterium tuberculosis DKU 76 clinical isolate after 2 to 3 weeks; type: functional, organism-based
Haemophilus influenzae [3] = assay: Antimicrobial activity against Haemophilus influenzae ARC158 after 5 days by microdilution method; type: functional; settings: ARC158, 120 h
[4] = test system: Mycobacterium tuberculosis; assay: Antimicrobial activity against Mycobacterium tuberculosis DKU211 clinical isolate after 2 to 3 weeks; type: functional, organism-based
[5] = Cytotoxicity against human THP1 cells after 24 hrs by resazurin assay; type: cell-based, THP-1; settings: read-out: MIC
Escherichia coli [6] = assay: Antimicrobial activity against Escherichia coli ARC524 after 5 days by microdilution method; type: functional; settings: ARC524, 120 h
[7] = test system: Mycobacterium tuberculosis; assay: Antimicrobial activity against Mycobacterium tuberculosis 97A clinical isolate after 2 to 3 weeks; type: functional, organism-based
Pseudomonas aeruginosa [8] = assay: Antimicrobial activity against Pseudomonas aeruginosa ARC545 after 5 days by microdilution method; type: functional; settings: ARC545, 120 h
[9] = Lipophilicity, log D of the compound; type: physicochemical; settings: octanol/water
[10] = test system: Mycobacterium tuberculosis; assay: Antimicrobial activity against Mycobacterium tuberculosis ATCC 25618 after 2 to 3 weeks; type: functional, organism-based
[11] = test system: Mycobacterium tuberculosis; assay: Antimicrobial activity against Mycobacterium tuberculosis H37Rv ATCC 27294 after 5 days by microdilution method; type: functional; settings: H37Rv ATCC 27294, 120 h
[12] = test system: Mycobacterium tuberculosis; assay: Antimicrobial activity against Mycobacterium tuberculosis Erdman after 2 to 3 weeks; type: functional, organism-based
Pseudomonas aeruginosa [13] = assay: Antimicrobial activity against Pseudomonas aeruginosa ARC546 after 5 days by microdilution method; type: functional; settings: ARC546, 120 h
Staphylococcus aureus = assay: Antimicrobial activity against Staphylococcus aureus ARC517 after 5 days by microdilution method; type: functional; settings: ARC517, 120 h
[14] = Selectivity index, ratio of MIC for human THP1 cells to MIC for Mycobacterium tuberculosis H37Rv ATCC 27294; type: toxicity, cell-based, THP-1; settings: read-out: Selectivity Index
Escherichia coli [15] = assay: Antimicrobial activity against Escherichia coli ARC523 after 5 days by microdilution method; type: functional; settings: ARC523, 120 h
[16] = test system: Mycobacterium tuberculosis; assay: Antimicrobial activity against ofloxacin Mycobacterium tuberculosis 12119 after 2 to 3 weeks; type: functional, organism-based
[17] = test system: Mycobacterium tuberculosis; assay: Antimicrobial activity against Mycobacterium tuberculosis DKU220 clinical isolate after 2 to 3 weeks; type: functional, organism-based
[18] = test system: Mycobacterium tuberculosis; assay: Antimicrobial activity against Mycobacterium tuberculosis JALMA clinical isolate after 2 to 3 weeks; type: functional, organism-based
Klebsiella pneumoniae = assay: Antimicrobial activity against Klebsiella pneumoniae ARC1865 after 5 days by microdilution method; type: functional; settings: ARC1865, 120 h
Cytochrome P450 2C9 = Cytochrome P450 2C9 (Homo sapiens, UniProt P11712); assay: Inhibition of CYP2C9 (unknown origin); type: ADME
Sequence of Cytochrome P450 2C9 (P11712 whole entry): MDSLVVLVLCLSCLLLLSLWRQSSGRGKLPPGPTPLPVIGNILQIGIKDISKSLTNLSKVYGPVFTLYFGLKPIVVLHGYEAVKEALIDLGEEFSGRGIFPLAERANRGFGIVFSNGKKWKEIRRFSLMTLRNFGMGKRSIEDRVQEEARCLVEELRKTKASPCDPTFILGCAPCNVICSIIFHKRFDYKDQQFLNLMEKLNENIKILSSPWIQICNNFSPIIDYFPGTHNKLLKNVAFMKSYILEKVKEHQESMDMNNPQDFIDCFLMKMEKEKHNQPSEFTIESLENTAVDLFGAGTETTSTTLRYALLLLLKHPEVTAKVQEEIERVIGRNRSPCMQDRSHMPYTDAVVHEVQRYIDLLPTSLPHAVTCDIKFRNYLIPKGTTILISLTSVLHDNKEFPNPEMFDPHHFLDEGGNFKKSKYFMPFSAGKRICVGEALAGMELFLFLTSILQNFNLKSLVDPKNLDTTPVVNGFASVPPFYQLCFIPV

[19] = test system: Mycobacterium tuberculosis; assay: Antimicrobial activity against Mycobacterium tuberculosis ATCC 35811 after 2 to 3 weeks; type: functional, organism-based
Streptococcus pneumoniae = assay: Antimicrobial activity against Streptococcus pneumoniae ARC548 after 5 days by microdilution method; type: functional; settings: ARC548, 120 h
Candida albicans = assay: Antimicrobial activity against Candida albicans ARC526 after 5 days by microdilution method; type: functional; settings: ARC526, 120 h
Streptococcus pyogenes = assay: Antimicrobial activity against Streptococcus pyogenes after 5 days by microdilution method; type: functional; settings: 120 h
[20] = test system: Mycobacterium tuberculosis; assay: Antimicrobial activity against Mycobacterium tuberculosis Harlingen after 2 to 3 weeks; type: functional, organism-based
Haemophilus influenzae [21] = assay: Antimicrobial activity against Haemophilus influenzae ARC446 after 5 days by microdilution method; type: functional; settings: ARC446, 120 h
Cytochrome P450 2C19 = Cytochrome P450 2C19 (Homo sapiens, UniProt P33261); assay: Inhibition of CYP2C19 (unknown origin); type: ADME
Sequence of Cytochrome P450 2C19 (P33261 whole entry): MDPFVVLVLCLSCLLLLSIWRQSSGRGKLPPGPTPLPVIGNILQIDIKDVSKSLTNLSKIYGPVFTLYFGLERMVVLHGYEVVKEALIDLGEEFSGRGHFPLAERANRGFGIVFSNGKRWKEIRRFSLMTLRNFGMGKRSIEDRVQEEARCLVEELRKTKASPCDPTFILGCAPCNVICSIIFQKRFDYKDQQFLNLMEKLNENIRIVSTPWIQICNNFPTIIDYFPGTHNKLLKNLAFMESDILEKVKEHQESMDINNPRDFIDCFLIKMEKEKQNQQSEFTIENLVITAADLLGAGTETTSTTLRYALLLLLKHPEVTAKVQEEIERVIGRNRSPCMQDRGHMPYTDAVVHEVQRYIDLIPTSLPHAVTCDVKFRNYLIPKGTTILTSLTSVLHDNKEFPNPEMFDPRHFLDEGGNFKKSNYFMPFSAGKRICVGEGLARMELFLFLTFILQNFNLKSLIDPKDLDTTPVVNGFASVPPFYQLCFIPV

Cytochrome P450 1A2 = target: T1, Cytochrome P450 1A2 (Homo sapiens, UniProt P05177); assay: Inhibition of CYP1A2 (unknown origin); type: ADME
T1 sequence (P05177 whole entry): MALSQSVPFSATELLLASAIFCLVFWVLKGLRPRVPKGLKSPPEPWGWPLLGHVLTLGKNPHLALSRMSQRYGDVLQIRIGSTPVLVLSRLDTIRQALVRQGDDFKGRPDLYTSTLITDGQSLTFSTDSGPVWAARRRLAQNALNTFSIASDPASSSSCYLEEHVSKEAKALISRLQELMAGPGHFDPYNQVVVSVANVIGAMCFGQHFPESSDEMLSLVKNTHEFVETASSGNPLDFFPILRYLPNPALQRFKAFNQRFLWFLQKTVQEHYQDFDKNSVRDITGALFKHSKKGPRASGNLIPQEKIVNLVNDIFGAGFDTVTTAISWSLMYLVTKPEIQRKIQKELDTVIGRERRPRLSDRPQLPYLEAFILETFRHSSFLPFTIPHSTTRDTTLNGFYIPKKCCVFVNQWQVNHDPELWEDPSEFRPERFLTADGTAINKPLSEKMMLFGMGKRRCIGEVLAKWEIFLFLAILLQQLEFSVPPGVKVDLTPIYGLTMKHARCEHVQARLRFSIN

Cytochrome P450 2D6 = Cytochrome P450 2D6 (Homo sapiens, UniProt P10635); assay: Inhibition of CYP2D6 (unknown origin); type: ADME
Sequence of Cytochrome P450 2D6 (P10635 whole entry): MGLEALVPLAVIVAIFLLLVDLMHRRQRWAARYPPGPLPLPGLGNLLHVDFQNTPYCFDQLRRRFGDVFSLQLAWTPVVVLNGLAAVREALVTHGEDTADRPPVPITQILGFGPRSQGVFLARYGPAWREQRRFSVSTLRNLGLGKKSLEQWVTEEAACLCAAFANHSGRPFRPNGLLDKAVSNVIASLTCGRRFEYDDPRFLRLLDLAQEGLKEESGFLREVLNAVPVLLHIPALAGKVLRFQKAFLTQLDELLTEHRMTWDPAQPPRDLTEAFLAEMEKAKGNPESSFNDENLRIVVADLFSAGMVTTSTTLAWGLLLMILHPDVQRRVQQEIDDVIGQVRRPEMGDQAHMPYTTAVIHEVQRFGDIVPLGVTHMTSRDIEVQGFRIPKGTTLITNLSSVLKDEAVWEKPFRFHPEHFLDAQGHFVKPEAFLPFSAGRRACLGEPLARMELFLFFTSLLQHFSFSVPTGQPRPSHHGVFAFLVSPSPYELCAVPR

[22] = Fraction unbound in human plasma; type: ADME, cell-free
Cytochrome P450 3A4 = Cytochrome P450 3A4 (Homo sapiens, UniProt P08684); assay: Inhibition of CYP3A4 (unknown origin); type: ADME
Sequence of Cytochrome P450 3A4 (P08684 whole entry): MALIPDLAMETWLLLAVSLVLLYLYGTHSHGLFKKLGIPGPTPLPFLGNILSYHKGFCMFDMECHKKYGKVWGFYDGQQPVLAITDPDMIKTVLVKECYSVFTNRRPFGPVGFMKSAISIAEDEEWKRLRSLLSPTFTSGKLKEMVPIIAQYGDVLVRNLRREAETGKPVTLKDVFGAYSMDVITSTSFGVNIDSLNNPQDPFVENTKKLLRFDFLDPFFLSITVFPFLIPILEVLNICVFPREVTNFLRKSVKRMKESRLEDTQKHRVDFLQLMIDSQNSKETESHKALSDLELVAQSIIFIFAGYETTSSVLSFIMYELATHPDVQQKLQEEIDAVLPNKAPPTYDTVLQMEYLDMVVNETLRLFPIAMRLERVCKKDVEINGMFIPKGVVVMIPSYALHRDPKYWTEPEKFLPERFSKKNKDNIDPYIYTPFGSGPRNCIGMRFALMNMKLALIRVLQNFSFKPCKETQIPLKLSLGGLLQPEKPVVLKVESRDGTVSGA

| SMILES | MIC80 (Haemophilus influenzae [3]) [µM] | MCC at 24 h [5] [µM] | MIC80 (Escherichia coli [6]) [µM] | MIC (Pseudomonas aeruginosa [8]) [µM] | logD [9] | MIC [11] [µM] | MIC80 (Pseudomonas aeruginosa [13]) [µM] | MIC80 (Staphylococcus aureus) [µM] | MIC80 (Escherichia coli [15]) [µM] | MIC80 (Klebsiella pneumoniae) [µM] | MIC80 (Streptococcus pneumoniae) [µM] | MIC80 (Candida albicans) [µM] | MIC80 (Streptococcus pyogenes) [µM] | MIC80 (Haemophilus influenzae [21]) [µM] | also measured |
| --- | --- | --- | --- | --- | --- | --- | --- | --- | --- | --- | --- | --- | --- | --- | --- |
| CC(C)OCCOc1ccc(-c2cnc(COc3ncccc3C(N)=O)nc2)c(Cl)c1 | > 60 | > 250 | > 60 | > 60 | 2.8 | 0.12 (≈ 0.0531 µg/mL) | > 60 | > 60 | > 60 | > 60 | > 60 | > 60 | > 60 | > 60 | Activity [1]: Active; Activity [2]: Active; Activity [4]: Active; Activity [7]: Active; Activity [10]: Active; Activity [12]: Active; selectivity ratio [14]: > 2500; Activity [16]: Active; Activity [17]: Active; Activity [18]: Active; IC50 (Cytochrome P450 2C9): 19 µM; Activity [19]: Active; Activity [20]: Active |
| NC(=O)c1cccnc1OCc1ccc(-c2ccc(OCC3CCCO3)cc2Cl)cn1 (stereo unspecified) | > 60 | > 50 | > 60 | > 60 | 2.8 | 1.1 (≈ 0.484 µg/mL) | > 60 | > 60 | > 60 | > 60 | > 60 | > 60 | > 60 | > 60 | – |
| NC(=O)c1cccnc1OCc1ncc(-c2ccc(OCCCF)cc2Cl)cn1 | > 60 | > 250 | > 60 | > 60 | 2.8 | 0.12 (≈ 0.05 µg/mL) | > 60 | > 60 | > 60 | > 60 | > 60 | > 60 | > 60 | > 60 | Activity [1]: Active; Activity [2]: Active; Activity [4]: Active; Activity [7]: Active; Activity [10]: Active; Activity [12]: Active; Activity [16]: Active; Activity [17]: Active; Activity [18]: Active; Activity [19]: Active; IC50 (Cytochrome P450 2C19): 18 µM; Activity [20]: Active |
| NC(=O)c1cccnc1OCc1ccc(-c2ccccc2)cn1 | – | – | – | – | – | > 50 | – | – | – | – | – | – | – | – | – |
| CCN(CC)CCOc1ccc(-c2ccc(COc3ncccc3C(N)=O)nc2)c(C)c1 | – | – | – | – | – | > 100 | – | – | – | – | – | – | – | – | – |
| COCCOc1ccc(-c2ccc(COc3ncccc3C(=O)N(C)C)nc2)c(C)c1 | – | > 50 | – | – | – | > 75 | – | – | – | – | – | – | – | – | – |
| Cc1cc(OC[C@@H]2CCCO2)ccc1-c1ccc(COc2ncccc2C(N)=O)nc1 | – | > 50 | – | – | – | 1.2 (≈ 0.503 µg/mL) | – | – | – | – | – | – | – | – | – |
| COCCOc1ccc(-c2cnc(COc3ncccc3C(N)=O)nc2)c(C)c1 | > 60 | > 50 | > 60 | > 60 | – | 1.5 (≈ 0.592 µg/mL) | > 60 | > 60 | > 60 | > 60 | > 60 | > 60 | > 60 | > 60 | – |
| COCCOc1ccc(-c2ccc(COc3ncccc3C(N)=O)nc2)c(C)c1 | – | > 50 | – | – | 2.8 | 0.6 (≈ 0.236 µg/mL) | – | – | – | – | – | – | – | – | Activity [1]: Active; Activity [2]: Active; inhibition (INH) (Cytochrome P450 1A2): Not Active; Activity [4]: Active; Activity [7]: Active; Activity [10]: Active; Activity [12]: Active; inhibition (INH) (Cytochrome P450 2D6): Not Active; Activity [16]: Active; Activity [17]: Active; Activity [18]: Active; fraction unbound [22]: 0.042; Activity [19]: Active; inhibition (INH) (Cytochrome P450 3A4): Not Active; Activity [20]: Active |
| COc1ccc(-c2ccc(COc3ncccc3C(N)=O)nc2)c(C(F)(F)F)c1 | – | – | – | – | – | 39.7 (≈ 16 µg/mL) | – | – | – | – | – | – | – | – | – |
| COCCOc1ccc(-c2ccc(COc3ncccc3C(=O)N3CCC(O)C3)nc2)c(C)c1 (stereo unspecified) | – | > 50 | – | – | – | > 75 | – | – | – | – | – | – | – | – | – |
| COc1ccc(-c2ccc(COc3ncccc3C(N)=O)nc2)c(Cl)c1 | – | > 50 | – | – | – | 5.4 (≈ 2 µg/mL) | – | – | – | – | – | – | – | – | – |
| COc1ccc(-c2ccc(COc3ncccc3C(N)=O)nc2)c(F)c1 | – | > 50 | – | – | – | 16.9 (≈ 5.97 µg/mL) | – | – | – | – | – | – | – | – | – |

From ChEMBL document CHEMBL3286119, “Biarylmethoxy Nicotinamides As Novel and Specific Inhibitors of Mycobacterium tuberculosis” (ACS Med Chem Lett, 2014)
